# Data published in patent publication US10081648B2, “Lipid-based platinum compounds and nanoparticles” (AKAMARA THERAPEUTICS, INC., priority 2013, dated 2018).
# Columns and labels:
# [1] = tested on: MDA-MB-231, SKOV-3, HeLa, SW-620 and HCT-116 cell lines; experiment: MTT cell viability assay, 72 h; type: cell-based, human; settings: for inhibition of cell viability: 0-25 μM concentration range, dose-response relationship; for IC50 compared with oxaliplatin: human cancer cell lines
# Description: FIGS. 7A-7F show MTT assay results for some exemplary compounds disclosed herein. Graphical representation of MTT assay for the activity of exemplary compounds examined on various human cancer cell lines. […] The IC50 values of compound/oxaliplatin tested in cell-lines are mentioned alongside, in corresponding colors as the cell viability curve.
# Cell culture: Mammalian cells were grown in specific culture media, supplemented with 10% fetal bovine serum (FBS) and antibiotics in a humidified environment containing 5% CO2 at 37° C.
# Cell viability assay: The effects of supramolecular platinum conjugates on the viability of cancer cells were measured using MTT assay. Cells in 100 μl culture-media were plated in 96-well plates (3000-5000 cells/well) and allowed to adhere overnight in a humidified environment containing 5% CO2 at 37° C. Fresh media (100 μL) containing different concentrations of compounds were added to cells and incubated for 72 hours. Following incubation, cell viability was determined using the MTT assay. The MTT assay measures cell viability through assessment of active mitochondrial dehydrogenase, which converts MTT into water-insoluble purple formazan crystals. Cell viability was plotted as dose-response curves using curve fitting.
# The effects of exemplary compounds (compound 25, 26, 27, 28, 31, 48) were evaluated in vitro in comparison with oxaliplatin in breast cancer (MDA-MB-231), ovarian cancer (SKOV-3), cervical cancer (HeLa) and colorectal cancer (SW-620 and HCT-116) cell lines.
# MDA-MB-231 cells = experiment: Cellular uptake of platinum compounds (AAS); type: cell-based; settings: 50 μM platinum equivalent, 5 hrs
# Description: Cells were incubated with 50 μM concentration of platinum compounds for 5 hours. The amount of platinum accumulated in cells was measured by AAS and expressed as ng of platinum accumulated per 10^5 cells.
# Cellular uptake of platinum compounds: MDA-MB-231 cells (1×10^6) were seeded in 2 ml media per well of a 6-well plate and grown for 24 hrs. Required volume of compounds was added to achieve a final concentration of 50 μM platinum equivalent per well. Cells were incubated for 5 hrs after adding the compounds, then washed twice with PBS, harvested by trypsinization, resuspended in PBS and counted. Cells were centrifuged and pellets stored at −80° C. until further processing. The cell pellets were digested with 100 μl nitric acid at 70° C. for 4 hours. Following digestion, the samples were diluted in 2% HCl and the quantity of accumulated platinum was determined using Atomic absorption spectroscopy (AAS). The assay was validated using a linear standard curve, generated from serial dilutions of certified stock platinum standard and cellular uptake of platinum was expressed as ng of platinum per 1×10^5 cells.
Compound,inhibition of cell viability [1],IC50 compared with oxaliplatin [1],cellular uptake of platinum (MDA-MB-231 cells)
CC(C)CCC[C@@H](C)[C@H]1CC[C@H]2[C@@H]3CC=C4C[C@@H](OCCNC(=O)C[N+]5(CC(=O)[O-])CC(=O)[O][Pt]56[NH][C@@H]5CCCC[C@H]5[NH]6)CC[C@]4(C)[C@H]3CC[C@]12C (some centres unmarked) [Compound 27],significant inhibition of cell viability,lower than oxaliplatin,
O=C1[O][Pt]2([NH][C@@H]3CCCC[C@H]3[NH]2)[O]C1=O [oxaliplatin],,,similar
CC(C)CCC[C@@H](C)[C@H]1CCC2C3CC=C4C[C@@H](OCC[N+]5(CC(=O)[O-])CC(=O)[O][Pt]56[NH][C@@H]5CCCC[C@H]5[NH]6)CC[C@]4(C)C3CC[C@@]21C (some centres unmarked) [Compound 25],significant inhibition of cell viability,lower than oxaliplatin,
CC(C)CCC[C@@H](C)[C@H]1CC[C@H]2[C@@H]3CC=C4C[C@@H](OC(=O)NCC[N+]5(CC(=O)[O-])CC(=O)[O][Pt]56[NH][C@@H]5CCCC[C@H]5[NH]6)CC[C@]4(C)[C@H]3CC[C@]12C (some centres unmarked) [Compound 26],significant inhibition of cell viability,lower than oxaliplatin,
CC(C)CCC[C@@H](C)[C@H]1CC[C@H]2[C@@H]3CC=C4C[C@@H](OCCOCC[N+]5(CC(=O)[O-])CC(=O)[O][Pt]56[NH][C@@H]5CCCC[C@H]5[NH]6)CC[C@]4(C)[C@H]3CC[C@]12C (some centres unmarked) [Compound 28],significant inhibition of cell viability,lower than oxaliplatin,
CC(C)CCC[C@@H](C)[C@H]1CC[C@H]2[C@@H]3CC=C4C[C@@H](OCCCC5=CC(=O)[O][Pt]6([NH][C@@H]7CCCC[C@H]7[NH]6)[O]5)CC[C@]4(C)[C@H]3CC[C@]12C [Compound 31],significant inhibition of cell viability,lower than oxaliplatin,
